# What was measured:
# [1] = system: Erysiphe graminis f.sp. tritici; assay: Efficacy against Erysiphe graminis f.sp. tritici on wheat (Example B-1), spray application; format: in vivo, Erysiphe graminis f.sp. tritici on wheat plants c.v. Arina
# From the text: (§1) A synergistic effect exists whenever the action of an active ingredient combination is greater than the sum of the actions of the individual components.
# (§2) The action to be expected E for a given active ingredient combination obeys the so-called COLBY formula and can be calculated as follows (COLBY, S. R. “Calculating synergistic and antagonistic responses of herbicide combination”. Weeds, Vol. 15, pages 20-22; 1967):
# (§3) According to Colby, the expected (additive) action of active ingredients I+II using p+q ppm of active ingredient is [formula]
# (§4) If the action actually observed (O) is greater than the expected action (E), then the action of the combination is superadditive, i.e. there is a synergistic effect. Alternatively the synergistic action may also be determined from the dose response curves according to the so-called WADLEY method. With this method the efficacy of the a.i. is determined by comparing the degree of fungal attack on treated plants with that on untreated, similarly inoculated and incubated check plants. Each a.i. is tested at 4 to 5 concentrations. The dose response curves are used to establish the EC90 (i.e. concentration of a.i. providing 90% disease control) of the single compounds as well as of the combinations (EC 90observed). The thus experimentally found values of the mixtures at a given weight ratio are compared with the values that would have been found were only a complementary efficacy of the components was present (EC 90 (A+B)expected). The EC90 (A+B)expected is calculated according to Wadley (Levi et al., EPPO- Bulletin 16, 1986, 651-657): [formula]
# Wheat plants c.v. “Arina”, about 10 days old, are sprayed with aqueous suspensions of the active ingredients or mixtures thereof. One day later, the plants are inoculated by dusting with spores of Erysiphe graminis. The tests may also be carried out with curative applications, i.e. application 1-3 days after artificial inoculation of the plants. The plants are incubated in the greenhouse or in climate chambers at 20° C., 70% relative humidity. 7 to 10 days after inoculation, fungal attack on primary leaves is assessed.
# (§5) The efficacy of the test combinations and the single active ingredients in the above tests is determined by comparing the degree of fungal attack with that on untreated, similarly inoculated check plants.
# Puccinia recondita = assay: Activity against Puccinia recondita in wheat (B-7), spray application; format: in vivo, Puccinia recondita on wheat plants c.v. Arina; details: Table 5
# From the text: as §1, §2, §3, §4
# Wheat plants c.v. “Arina”, about 10 days old, are sprayed with aqueous suspensions of the active ingredients or mixtures thereof. One day later, the plants are inoculated with a spore suspension of the fungus. The test may also be carried out with curative applications, i.e. application 1-3 days later after artificial inoculation of the plants. The plants are incubated in a growth chamber for 2 days at °20° C. and 95-100% relative humidity, then further 10 days at 20° C. and 70% relative humidity. Fungal attack on primary leaves is assessed.
# as §5
# [2] = system: Helminthosporium gramineum; assay: Activity against Helminthosporium gramineum on barley (Example B-12), seed treatment; format: in vivo; details: Table 6
# From the text: as §1, §2, §3, §4
# Barley seed which is infected with H.gramineum is harvested from the field. […] About 60 days after sowing, the number of existing plants and the number of infected plants are determined. Symptoms are expressed as typical stripe-shaped spots on the first leaf. The total infection rate is compared with the total infection rate in the comparison seed trays with untreated seeds and expressed as the total percentage infection rate.
smiles,measurement,setting,value
CCCOc1nc2sc(Cl)cc2c(=O)n1CCC [cmpd. I.01],% activity observed,"[1]; Table 1, 10 ppm alone",0%
same,% activity observed,"[1]; Table 1, 25 ppm alone",0%
same,% activity observed,"[1]; Table 1, 50 ppm alone",12%
same,% activity observed,"[1]; Table 1, 100 ppm alone",26%
same,% activity observed,"[1]; Table 1, 250 ppm alone",34%
same,% activity observed,"[1]; Table 1, 500 ppm alone",66%
same,% activity observed,"[1]; Table 2, 1 ppm alone",0%
same,% activity observed,"[1]; Table 2, 2.5 ppm alone",0%
same,% activity observed,"[1]; Table 2, 5 ppm alone",8%
same,% activity observed,"[1]; Table 2, 10 ppm alone",8%
same,% activity observed,"[1]; Table 2, o.5 ppm alone",0%
same,% activity observed,"[1]; Table 3, 0.5 ppm alone",2%
same,% activity observed,"[1]; Table 3, 1 ppm alone",0%
same,% activity observed,"[1]; Table 3, 2.5 ppm alone",14%
same,% activity observed,"[1]; Table 3, 5 ppm alone",8%
same,% activity observed,"[1]; Table 3, 10 ppm alone",4%
same,% activity observed,"[1]; Table 4, 0.25 ppm alone",0%
same,% activity observed,"[1]; Table 4, 0.5 ppm alone",0%
same,% activity observed,"[1]; Table 4, 1 ppm alone",0%
same,% activity observed,"[1]; Table 4, 2.5 ppm alone",0%
same,% activity observed,Puccinia recondita; 0.5 ppm alone,0%
same,% activity observed,Puccinia recondita; 1 ppm alone,0%
same,% activity observed,Puccinia recondita; 2.5 ppm alone,0%
same,% activity observed,Puccinia recondita; 5 ppm alone,0%
same,% activity observed,Puccinia recondita; 10 ppm alone,0%
same,% activity observed,Puccinia recondita; 25 ppm alone,0%
same,% activity observed,[2]; 20 g a.i./100 kg seed alone,11%
"CC(Cc1ccc(C(C)(C)C)cc1)CN1CCCCC1 (stereo not drawn) [fenpropidine, reference compound]",inhibition at 2.5 ppm,"[1]; Blumeria graminis, Table 4, 2.5 ppm alone, read-out: % activity observed",35%
same,inhibition at 5 ppm,"[1]; Blumeria graminis, Table 4, 5 ppm alone, read-out: % activity observed",51%
same,inhibition at 10 ppm,"[1]; Blumeria graminis, Table 4, 10 ppm alone, read-out: % activity observed",63%
"CCCC1COC(Cn2cncn2)(c2ccc(Cl)cc2Cl)O1 (stereo not drawn) [propiconazole, reference compound]",% activity observed,"[1]; Table 3, 0.1 ppm alone",0%
same,% activity observed,"[1]; Table 3, 0.25 ppm alone",0%
same,% activity observed,"[1]; Table 3, 0.5 ppm alone",6%
same,% activity observed,"[1]; Table 3, 1 ppm alone",8%
same,% activity observed,"[1]; Table 3, 2.5 ppm alone",72%
"CON=C(C(=O)OC)c1ccccc1CON=C(C)c1cccc(C(F)(F)F)c1 [cmpd. V, methyl 2-{2-[4-(3-trifluoromethylphenyl)-3-aza-2-oxa-3-pentenyl]-phenyl}-2-methoxyimino-acetate, reference compound]",inhibition at 1 ppm,"Puccinia recondita; Puccinia recondita, 1 ppm alone, read-out: % activity observed",17%
same,inhibition at 2.5 ppm,"Puccinia recondita; Puccinia recondita, 2.5 ppm alone, read-out: % activity observed",32%
same,inhibition at 5 ppm,"Puccinia recondita; Puccinia recondita, 5 ppm alone, read-out: % activity observed",38%
same,inhibition at 10 ppm,"Puccinia recondita; Puccinia recondita, 10 ppm alone, read-out: % activity observed",37%
"CC(C1CC1)C(O)(Cn1cncn1)c1ccc(Cl)cc1 (stereo not drawn) [cyproconazole, reference compound]",% activity observed,"[1]; Table 2, 1 ppm alone",8%
same,% activity observed,"[1]; Table 2, 2.5 ppm alone",49%
same,% activity observed,"[1]; Table 2, 5 ppm alone",100%
same,% activity observed,"[1]; Table 2, 10 ppm alone",100%
"N#Cc1c[nH]cc1-c1cccc2c1OC(F)(F)O2 [Fludioxonil, fludioxonil, reference compound]",% activity observed,"[1]; Table 1, 10 ppm alone",2%
same,% activity observed,"[1]; Table 1, 25 ppm alone",0%
same,% activity observed,"[1]; Table 1, 50 ppm alone",6%
same,% activity observed,"[1]; Table 1, 100 ppm alone",14%
same,% activity observed,"[1]; Table 1, 250 ppm alone",19%
same,% activity observed,"[1]; Table 1, 500 ppm alone",27%
CC1(C)CC/C(=C\c2ccc(Cl)cc2)C1(O)Cn1cncn1 (stereo not drawn) [triticonazole],% activity observed,[2]; 20 g a.i./100 kg seed alone,12%
same,% activity observed,[2]; 40 g a.i./100 kg seed alone,22%

# — patent US20030130290A1, “Fungicidal combinations comprising thieno[2,3-d]pyrimidin-4-one” (priority 1997, published 2003)
